From patent US6376666B1 (Nauchno-Issledovatelsky Institut Farmakologii Rossiiskoi …, priority 1994, dated 2002)
Marks after values point to notes of the source that are not given here.

Assays:
[1] = tested on: ischemized myocardium of cats; test: contractile and pump functions and ATP level of ischemized myocardium (20-40 min occlusion, reperfusion); type: in vivo
Protocol: The effects of this compound on contractile and pump functions of ischemized myocardium were studied in cats weighing 3,0-4,5 kg under anesthesia with nembutal (40 mg/kg). […] The phase curve of blood flow in ascending part of the aortic arch was recorded with electromagnetic blood flowmeter MFV-1200 (“Nihon-Kohden”, Japan). Hemodynamics, heart activity values and the number of arrhythmia were calculated. In the experiments with 40 min ischemia immediately after 60 min the intact and ischemized zones of left ventricle were dissected and freezed in liquid nitrogen. ATP level was measured using hexokinase method in these zones. 4 series of experiments (2-control and 2-basic) were conducted in 12 cats in each. For statistical calculation the t-Student and Fisher's precision test were used.

aconitine arrhythmia = test: animal or person; type: in vivo, rats
Protocol: Aconitine arrhythmia. The aconitine arrhythmia was induced in concious rats weighing 180-200 g by the injection in tail vein of the aconitine sulfate solution at dose range of […]. […] The tested compounds were administered i.v. 3 min prior aconitine injection. The ED50 value was calculated according to Litchfield's method.

[2] = tested on: ventricular fibrillations; test: ventricular fibrillation, 7-min occlusion and reperfusion of coronary artery in anesthetized rats; type: in vivo
Procedure, shortened: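 Male rats (180-240 g) under nembutal (60 mg/kg i.v.), open chest, ventilated, given compounds i.v. (1,0 or 2,0 mg/kg; saline control). Left coronary artery occluded 7 min, then reperfused, with lead II ECG. Fibrillations and arrhythmias counted and scored on a 0–4 point scale.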

[3] = tested on: ventricular disturbances of heart rhythm; test: arrhythmia in concious dogs according to Harris; type: in vivo; settings: for % ectopic contractions, change vs basal level / Heart rate, change vs basal level: 2 mg/kg i.v.
Protocol: The arrhythmia in concious dogs according to Harris. The experiments were conducted in mongrel dogs of either sex weighing 9-14 kg. Under anesthesia (40 mg/kg of nembutal i.v.) and artificial respiration the two-step occlusion of the left anterior descending coronary artery was performed. The constant ECG disturbances of the heart rhythm were recorded after 24 hours. […] T-Student' test was used for statistical calculation.

in vivo = settings: rat, iv
[4] = 40 min occlusion, 60 min reperfusion

With CCOc1ccc2nc(SCCN(CC)CC)[nH]c2c1 [Compound IX, 2-[2-(Diethylamino)ethylthio]-5-ethoxybenz-imidazole] the “effect on number of arrhythmias during occlusion and reperfusion, in words” value ([1]; 20 min occlusion, 30 min reperfusion) was “decreased the number of arrhythmias”, the “effect on cardiac output, in words” value ([1]; 20 min occlusion, 30 min reperfusion, 1,0 mg/kg bolus +50 mcg/kg/min i.v.) was “prevented the decrease in cardiac output” and the “effect on inhibition of contractile function of myocardium induced by ischemic damage, in words” value ([1]; 20 min occlusion, 30 min reperfusion, 1,0 mg/kg bolus +50 mcg/kg/min i.v. during 30 min) was “significantly prevents the inhibition of contractile function of myocardium”. For the same compound, the “effect on ATP level in intact zones of myocardium, in words” value [1, 4] was “did not change it in the intact zones”, the “effect on cardiac output, in words” value [1, 4] was “no effect on changes in cardiac output” and the “effect on stroke volume, in words” value [1, 4] was “prevented the decrease in stroke volume”. For the same compound, the “effect on ATP level in ischemized myocardium, in words” value ([1]; 40 min occlusion, 60 min reperfusion, hexokinase method) was “increased the ATP level in the ischemized myocardium”, the “effect on number of arrhythmias induced by occlusion and reperfusion, in words” value ([1]; critical and mild ischemia) was “did not reduced the number of arrhythmias” and the “effect on inhibition of contractile function of heart, in words” value ([1]; critical ischemia: 40 min occlusion, 60 min reperfusion) was “prevented the inhibition of contractile function of heart”. For the same compound, the “LD50/ED50 (antiarrhythmic index)” value (aconitine arrhythmia; LD50 i.v. / ED50 aconitine arrhythmia) was 26,2, the ED50 (aconitine arrhythmia; Rattus norvegicus, iv, read-out: Aconitine arrhythmia ED50) was 1.2 mg/kg and the “activity relative to lidocaine, aconitine arrhythmia” value (aconitine arrhythmia; rats, higher than lidocaine) was 6,5 folds. For the same compound, the “activity relative to quinidine, aconitine arrhythmia” value (aconitine arrhythmia; rats, higher than quinidine) was 4,4 folds, the “antifibrillatory effect, in words” value ([2]; anesthetized rats i.v., bonnecor 1,0, IX 2,0, X (printed) 1,0 mg/kg) was “reduced the number of both the ventricular fibrillations and lethality hazardous arrhythmia” and the “Number of VF (ventricular fibrillations)” value ([2]; anesthetized rats, 2 mg/kg i.v., 20 animals, control 15 of 24) was 4*. The “Number of LHA (lethality hazardous arrhythmia)” value ([2]; anesthetized rats, 2 mg/kg i.v., 20 animals, control 22 of 24) was 12*, the “Total numbers of arrhyt.” value ([2]; anesthetized rats, 2 mg/kg i.v., 20 animals, control 24 of 24) was 17^ and the Severity of arrhythmias ([2]; anesthetized rats, 2 mg/kg i.v., 20 animals, control 66) was 32** points. For the same compound, the “antiarrhythmic effect, in words” value ([3]; concious dogs with ventricular disturbances of heart rhythm, i.v.) was “pronounced antiarrhythmic effect”, the “% ectopic contractions, change vs basal level” value (from here on “% ectopic contractions, change”) ([3]; concious dogs, after 3 min) was −44.8 ± 15.0 % and the “Heart rate, change vs basal level” value ([3]; concious dogs, after 3 min) was “+3.2 ± 8.4 beats/min”. For the same compound, the “% ectopic contractions, change” value ([3]; concious dogs, after 5 min) was −43.8 ± 13.3 %, the “Heart rate, change vs basal level” value ([3]; concious dogs, after 5 min) was −5.2 ± 9.2 beats/min and the “% ectopic contractions, change” value ([3]; concious dogs, after 10 min) was −59.4 ± 7.8 %. For the same compound, the “Heart rate, change vs basal level” value ([3]; concious dogs, after 10 min) was −14.6 ± 12.0 beats/min, the “% ectopic contractions, change” value ([3]; concious dogs, after 20 min) was −41.4 ± 8.1 % and the “Heart rate, change vs basal level” value ([3]; concious dogs, after 20 min) was −16.4 ± 6.6 & beats/min. The “% ectopic contractions, change” value ([3]; concious dogs, after 30 min) was −24.8 ± 5.8 %, the “Heart rate, change vs basal level” value ([3]; concious dogs, after 30 min) was −5.6 ± 2.1 & beats/min and the “% ectopic contractions, change” value ([3]; concious dogs, after 60 min) was −17.2 ± 9.1%. For the same compound, the “Heart rate, change vs basal level” value ([3]; concious dogs, after 60 min) was −5.2 ± 4.1 & beats/min, the “duration of antiarrhythmic effect” value ([3]; concious dogs, 2,0 mg/kg i.v.) was 50 min and the “effect on heart rate, in words” value ([3]; concious dogs, i.v.) was “gradual bradycardia”. For the same compound, the “tolerability / side effects, in words” value ([3]; concious dogs, i.v.) was “no side effects” and the LD50 (in vivo) was 31.5 mg/kg.
